Laboratory results taken from publication PMC6435698, “Keggin-type polyoxotungstates as mushroom tyrosinase inhibitors - A speciation study” (Scientific Reports, 2019).
Read-outs that look alike come from different tables or passages of the source.

Experiments:
[1] = biological target: T1, abPPO4 (mushroom tyrosinase) (Agaricus bisporus, UniProt C7FF05); experiment: dopachrome assay, inhibition of abPPO4 diphenolase activity; type: biochemical; settings: for inhibitory effect on abPPO4 activity (in words): activity plots; for Inhibition type: substrate L-DOPA; for α, inhibition parameter, from Lineweaver-Burk intercepts: [b] from Lineweaver-Burk intercepts; as to Ki [mM], from Dixon plots: L-DOPA 0.4–1.5 mM; as to Ki [mM], from Lineweaver-Burk slopes: L-DOPA 0.4–1.5 mM
T1 construct: glutathione-S-transferase (GST) (N, cleaved yes); made in house; host or cells: E. coli BL21(DE3)
T1 sequence (C7FF05 1-379 limits assumed): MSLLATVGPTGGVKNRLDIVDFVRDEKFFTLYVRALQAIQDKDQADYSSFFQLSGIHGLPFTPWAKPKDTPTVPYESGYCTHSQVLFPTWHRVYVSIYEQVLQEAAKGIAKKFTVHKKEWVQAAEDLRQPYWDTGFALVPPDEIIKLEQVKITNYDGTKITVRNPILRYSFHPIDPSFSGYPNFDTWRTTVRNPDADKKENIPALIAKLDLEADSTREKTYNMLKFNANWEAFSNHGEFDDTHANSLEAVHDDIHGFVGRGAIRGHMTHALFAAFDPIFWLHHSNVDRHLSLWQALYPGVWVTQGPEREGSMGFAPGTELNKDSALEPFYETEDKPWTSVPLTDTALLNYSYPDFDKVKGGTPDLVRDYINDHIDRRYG
Procedure: The detailed methodology applied for kinetic evaluation is presented in the SI.
For the activity plots shown here, the ratios of reaction rates v ([I] = 0] and vapp ([I] = 0.2–14 mM) were determined from UV absorption measurements at 475 nm using the dopachrome assay. Each reaction setup contained a fixed amount of enzyme (1 µg abPPO4) in 1 mL in a plastic cuvette and the reaction buffer was 50 mM Na-citrate pH 6.8. POT stock solutions were prepared in 20 mM concentration in reaction buffer and adjusted for pH 6.8 with NaOH, if necessary. The reaction rates were extracted from the obtained absorption curves as the slope of linear fits of the steepest curve sections close to the start of the reaction over a time-range of 30 s and were determined in triplicates. The relative enzymatic activity dependent on the inhibitor concentration was fitted to a suitable hyperbolic expression (see SI for details). […] The dopachrome assay was performed exactly as described in section 3.1.1. This time, the observed reaction velocities vapp (in µmol/min) were calculated from the extracted reaction rates (in 1/s) using the extinction coefficient of dopachrome ε = 3700 M^−1 cm^−1 [62]. The so obtained data was plotted according to Lineweaver-Burk, and the slopes and ordinate intercepts of these graphs were used to extract inhibition parameters.
(The kinetic models with according mathematical expressions applied in this study are based on Copeland’s guide for enzyme kinetics[28].)
The classical Michaelis-Menten equation[28] relates the velocity v of an enzymatic reaction to the applied substrate concentration [S]:
In this equation, the Michaelis constant KM represents the substrate concentration effecting the half-maximum reaction rate vmax.
For the reported inhibition studies, we chose an expanded version of this equation (1) which accounts for all possible inhibition mechanisms and combinations thereof[28]. In general, both […]
ݒ௠௔௫,௔௣௣ = ௩೘ೌೣଵା [಺] (2)
Herein, [I] refers to the inhibitor concentration, Ki is the inhibition constant measuring the […]
The three ideal inhibition types are reflected by three limiting conditions for α:
(A) 0 < α <<1: uncompetitive inhibition
(B) α = 1: non-competitive inhibition
(C) α >> 1: competitive inhibition
Therefore, values of α < 1 often correspond to mixed-type inhibition with contributions from uncompetitive and non-competitive inhibition modes.
Insertion of expressions (2) and (3) in equation (1) leads to the final mixed-type inhibition […]
The relative enzymatic activity upon inhibition can be expressed as the ratio of the observed reaction velocity v app to the non - inhibited reaction performance v through dividing equation […]
This corresponds to a normalization of the reaction rates with respect to the non - inhibited rate. As w e were interested in the dependence of the reaction velocity on the inhibitor concentration , the substrate concentration was fixed to 1 mM L - DOPA for all activity plots.
This led to a further simplification of equation ( 1 ) : […]
Equation (6) was used as the final curve fit expression for kinetic evaluation of those POM […]
K M was set to 26.1 mM as reported for ab PPO4 by
3.2 Determination of inhibition type
3.2. 1 Kinetic evaluation using Lineweaver - Burk plots […]
linear Lineweaver - Burk [ 29 ] extrapolations. The double - reciprocal plots of 1/ v app against 1/[S] yielded straight li nes that were fitted accordingly to the corresponding ly rearranged form of […]
For simplicity, the terms for the slope m and the ordinate shift t are co mbine d in constants in […]

mushroom tyrosinase = settings: substrate L-DOPA; cited from earlier work
[2] = system: Bacillus megaterium tyrosinase; set-up: method as in PMID 27725765; settings: substrate L-DOPA; cited from earlier work
[3] = speciation / hydrolytic stability of POTs at pH 6.8 by 183W NMR; type: physicochemical; settings: 183W NMR (and 31P, 27Al NMR), ca. 20 mM in 50 mM Na-citrate pH 6.8
Excerpt: ^183W NMR spectroscopy is the most widely applied and reliable technique for the structural characterization of POTs in solution as well as to monitor the progress of reaction. Hundreds of POM ^183W NMR spectra have been reported since the first ^183W NMR spectrum for [SiW11]^8− observed by Acerete et al. in[47]. The here-presented ^183W NMR analysis yielded a single signal for all intact [XW12]^n− structures (Figs 4A,D and S11–S14), reflecting the perfect tetrahedral symmetry of the Keggin α-isomer and clearly confirming the isomeric purity of the prepared POTs.
^183W NMR samples for all the POM compounds were prepared in high concentrations similar to the stock solutions used for kinetic experiments (usually about 20 mM) in 50 mM Na-citrate pH 6.8 if not stated otherwise. ^183W NMR spectra were recorded with a Bruker FT-NMR spectrometer Avance Neo 500 MHz in 10 mm tubes for a total experiment time of ca. 60 hours, using standard pulse programs at 20.836 MHz and a 63° flip angle with 1 s of relaxation delay; the temperature was kept at 25 °C. Chemical shifts were measured relative to external 1 M Na2WO4. For [PW12]^3−, [PW11]^7− and […], additional ^31P NMR spectra were taken, structures of [AlW12]^5−, [AlW11]^9− and [BeW12]^6− were confirmed by ^27Al NMR or ^9Be NMR spectroscopy, respectively. ^27Al, ^9Be and ^31P NMR spectra were recorded at 130.368, 70.273 and 202.53 MHz, respectively. Chemical shifts are given relative to Al(NO3)3, BeSO4 or 85% H3PO4.
In the ^183W NMR spectrum of [PW12]^3− at pH 6.8 (see Fig. 4E), the six most intense peaks can be assigned to six different symmetry-equivalent positions in [PW11]^7−[47],[49]. The less intense signals in the ^183W NMR spectrum can be attributed to other [PW12]^3− hydrolysis products[51] that have been identified in the ^31P NMR spectrum (Fig. S7B). […] Based on both spectra, it can be concluded that [PW11]^7− prevails in aqueous solution at pH 6.8. […] Assignment is complicated by the special pseudo-paramagnetic character of this cluster (see ^183W NMR analysis in Fig. S15, SI section 2.2.2.4).
In order to identify the tungstate species responsible for the inhibitory effect observed with the orthotungstate solution [WO4]^2−, ^183W NMR was performed in reaction buffer pH 6.8, which had to be readjusted by a few drops of 5 M HCl to compensate for the marked basicity of [WO4]^2−. […] The chemical shifts are in agreement with literature data[56]. […] The ^183W NMR spectra for the POT clusters with higher negative charges (see Figs S11–S14) show only one single signal, thereby confirming full structural integrity of the corresponding Keggin anions at pH 6.8. The lacunary cluster [AlW11]^9− evoked a rise in pH up to 8.5 upon dissolution in reaction buffer (pH 6.8) to reach a final concentration of 20 mM. […] In the [BeW12]^6− spectrum (Fig. S14), three additional signals at −147.6, −155.3 and −168.6 ppm can be seen, which were assigned to the β-Keggin isomer. The C3v symmetry of this isomer results in three shifts with intensity ratio 1:2:1, as previously observed for other β-isomers of Keggin structure. The β-isomer is commonly formed during any synthesis of Keggin clusters, but rearranged to the α-form during prolonged thermal reaction. Thus, the occurrence of the β-form in the present preparation can be ascribed to the reduced reaction time applied for the hydrothermal synthesis. […] The ^31P (cf. Fig. S8) and ^183W NMR (Fig. S15) spectra of [PW11Ni]^5− have a special character originating from the peculiar electronic configuration of Ni^2+ and were in general accordance with reference data[61]. In the presented ^183W NMR spectrum, signals from those W atoms in direct neighbourhood to the Ni^2+ center cannot be observed, which complicates unambiguous assignment to the desired substituted POT structure. However, the obtained results can be explained in the light of electronic effects. […]

[4] = expected from net charge; cited from earlier work
[5] = [a] from activity plot, 1 mM L-DOPA, 50 mM Na-citrate pH 6.8, 0–14 mM POT
[6] = [a] from activity plot, 1 mM L-DOPA, 50 mM Na-citrate pH 6.8, 0–14 mM POT, read-out: Ki [mM], from activity plot
[7] = [a] from activity plot, 1 mM L-DOPA, pH 6.8
[8] = [b] from Lineweaver-Burk slopes, L-DOPA 0.4–[…], pH 6.8, read-out: Ki [mM], from Lineweaver-Burk slopes
[9] = [c] from Dixon plots, average intersection, L-DOPA 0.4–[…], pH 6.8, read-out: Ki [mM], from Dixon plots

Compound: O=[N+]([O-])[O-].O=[N+]([O-])[O-].[Ni+2] [Ni^2+, Ni(NO3)2, reference compound]
- Ki [mM], from activity plot [1, 5]: No inhibition
- inhibitory effect on abPPO4 activity (in words) ([1]; 1 mM L-DOPA, pH 6.8): no inhibition effect
- Inhibition type ([1]; pH 6.8): No inhibition

Compound: O=c1cc(CO)occ1O [kojic acid]
- inhibition mode (mushroom tyrosinase): competitive
- inhibition mode [2]: mixed-type

Compound: H[W7O24]^5− [heptatungstate]
- inhibitory effect on abPPO4 activity (in words) ([1]; 1 mM L-DOPA, pH 6.8): measurable inhibition effects

Compound: K5[BW12O40] [[BW12]^5−]
- structural integrity / hydrolysis at pH 6.8 [3]: retain full structural integrity
- Ki [mM], from activity plot [1, 5]: No inhibition
- Inhibition type ([1]; pH 6.8): No inhibition

Compound: K5[PW11O39{Ni(H2O)}] [[PW11Ni]^5−]
- Ki [1, 6]: 9.7 mM
- α, inhibition parameter, from activity plot [1, 7]: 0.12
- α, inhibition parameter, from Lineweaver-Burk intercepts ([1]; pH 6.8): 0.20
- Ki [1, 8]: 14.3 mM
- Ki [1, 9]: 15 mM
- inhibitory effect on abPPO4 activity (in words) ([1]; 1 mM L-DOPA, pH 6.8): pronounced inhibition
- Inhibition type ([1]; pH 6.8): Mixed-type

Compound: K7[PW11O39] [[PW11]^7−]
- Ki [1, 6]: 12 mM
- α, inhibition parameter, from activity plot [1, 7]: 0.12
- α, inhibition parameter, from Lineweaver-Burk intercepts ([1]; pH 6.8): 0.17
- Ki [1, 8]: 9.9 mM
- Ki [1, 9]: 9.9 mM
- inhibitory effect on abPPO4 activity (in words) ([1]; 1 mM L-DOPA, pH 6.8): inhibitory effect of intermediate capacity
- Inhibition type ([1]; pH 6.8): Mixed-type

Compound: K8[SiW11O39] [[SiW11]^8−]
- Ki [mM], from activity plot [1, 5]: No inhibition
- inhibitory effect on abPPO4 activity (in words) ([1]; 1 mM L-DOPA, pH 6.8): no enzymatic inhibition
- inhibitory effect on abPPO4 activity (in words) ([1]; 1 mM L-DOPA, pH 6.8, listed as Hx[SiW11O39]^(8−x)−): ineffective
- Inhibition type ([1]; pH 6.8): No inhibition

Compound: Na3[PW12O40] [[PW12]^3−]
- structural integrity / hydrolysis at pH 6.8 [3]: full hydrolysis
- α, inhibition parameter, from activity plot [1, 7]: 0.13
- α, inhibition parameter, from Lineweaver-Burk intercepts ([1]; pH 6.8): 0.20
- inhibitory effect on abPPO4 activity (in words) ([1]; 1 mM L-DOPA, pH 6.8): markedly lower inhibition capacity
- Inhibition type ([1]; pH 6.8): Mixed-type

Compound: Na5[AlW12O40] [[AlW12]^5−]
- structural integrity / hydrolysis at pH 6.8 [3]: retain full structural integrity
- Ki [mM], from activity plot [1, 5]: No inhibition
- Inhibition type ([1]; pH 6.8): No inhibition

Compound: Na6[BeW12O40] [[BeW12]^6−]
- structural integrity / hydrolysis at pH 6.8 [3]: retain full structural integrity
- stability in aqueous buffers up to pH [4]: ≤ 9 pH
- Ki [mM], from activity plot [1, 5]: No inhibition
- Inhibition type ([1]; pH 6.8): No inhibition

Compound: Na6[H2W12O40] [[H2W12]^6−]
- structural integrity / hydrolysis at pH 6.8 [3]: retain full structural integrity
- Ki [mM], from activity plot [1, 5]: No inhibition
- Inhibition type ([1]; pH 6.8): No inhibition

Compound: Na9[AlW11O39] [[AlW11]^9−]
- structural integrity / hydrolysis at pH 6.8 [3]: not stable
- α, inhibition parameter, from activity plot [1, 7]: 0.12
- α, inhibition parameter, from Lineweaver-Burk intercepts ([1]; pH 6.8): 0.31
- inhibitory effect on abPPO4 activity (in words) ([1]; 1 mM L-DOPA, pH 6.8): weak inhibitory capacity
- Inhibition type ([1]; pH 6.8): Mixed-type

Compound: [AlW11O39{Al(H2O)}]^6−
- Ki [1, 6]: 54.1 mM
- inhibitory effect on abPPO4 activity (in words) ([1]; 1 mM L-DOPA, pH 6.8): weak inhibition effects
